Measurements taken from patent US20260374818A1, “CATIONIC PEPTIDES WITH BROAD SPECTRUM ACTIVITY” (priority 2023, published 2026).
Where a SMILES comes first, the peptide text is derived from it. [ ]: non-standard residue; d: D form.

Key:
[1] = tested on: P. aeruginosa PAO1 biofilms; experiment: Checkerboard biofilm synergy of AB103-D with antimicrobials, PAO1; assay type: cell-based, Pseudomonas aeruginosa
[2] = tested on: MRSA biofilms on human skin organoid; experiment: Skin organoid biofilm infection model, peptide solution, MRSA; assay type: cell-based, methicillin resistant Staphylococcus aureus; settings: peptide solution 4 hrs (FIG. 3A)
[3] = tested on: PAO1 biofilms on human skin organoid; experiment: Skin organoid biofilm infection model, peptide solution, PAO1; assay type: cell-based, Pseudomonas aeruginosa; settings: peptide solution 4 hrs (FIG. 3B)
[4] = tested on: MRSA biofilms on N/TERT epithelial skin; experiment: Skin organoid biofilm model, peptide-loaded collagen dressings, MRSA; assay type: cell-based, methicillin resistant Staphylococcus aureus; settings: compared to DJK-5 and ciprofloxacin
[5] = tested on: P. aeruginosa biofilms on N/TERT epithelial skin; experiment: Skin organoid biofilm model, peptide-loaded collagen dressings, P. aeruginosa; assay type: cell-based, Pseudomonas aeruginosa; settings: compared to DJK-5 and ciprofloxacin
[6] = tested on: MRSA biofilms on Ker-CT epidermal skin; experiment: Skin organoid biofilm model, AB103-D loaded Medvance foam dressing, MRSA; assay type: cell-based, methicillin resistant Staphylococcus aureus
[7] = tested on: P. aeruginosa LESB58 biofilms on Ker-CT epidermal skin; experiment: Skin organoid biofilm model, AB103-D loaded Medvance foam dressing, P. aeruginosa LESB58; assay type: cell-based, Pseudomonas aeruginosa
[8] = tested on: A. baumanii biofilms on Ker-CT epidermal skin; experiment: Skin organoid biofilm model, AB103-D loaded Medvance foam dressing, A. baumanii; assay type: cell-based, Acinetobacter baumannii
[9] = tested on: S. aureus USA300 (MRSA) wound biofilms; experiment: Porcine dermal biofilm wound infection model, MRSA; assay type: in vivo, porcine; methicillin resistant Staphylococcus aureus; settings: compared with ciprofloxacin, mupirocin
Text: . Peptide (PEP1=DJK5; PEP3=AB103-D) solutions were used to hydrate Puracol® resorbable dressings made of collagen either alone or in the presence of antibiotic (ABX1=ciprofloxacin). Briefly, partial thickness wounds (10 mm×7 mm×1 mm deep) were created on the backs of the animals then infected with log-phase cultures of bacteria and allowed biofilms to form for 24-hrs. Dressings were applied to infected wounds of either MRSA S. aureus USA300 (FIG. 6A) or P. aeruginosa 27312 (FIG. 6B) as either a single treatment (day 1) or twice treated (Day 1 and 4) and all wounds were excised on day 7 for CFU renumeration. The amount of peptide applied in all treatments was 10 mg while 1 mg of ciprofloxacin was used in and treatment containing antibiotic. Mupirocin and silver sulfadiazine (SSD) were used as positive controls.
In vivo porcine dermal biofilm model: Peptide loaded dressings were evaluated using a porcine dermal biofilm infection model as described previously [Davis, S. C., et al. (2018). The wound-healing effects of a next-generation anti-biofilm silver Hydrofiber wound dressing on deep partial-thickness wounds using a porcine model. International Wound Journal, 15(5), 834-839]. Briefly, partial thickness wounds (10 mm×7 mm×1 mm deep) were created on the backs of the animals then infected with log-phase cultures of bacteria and allowed biofilms to form for 24-hrs. […]

[10] = tested on: 3-day-old oral plaque (multispecies) biofilms; experiment: Oral plaque biofilm model, long-term (1-3 days) exposure, dead cell volume; assay type: cell-based
[11] = tested on: 3-day-old oral plaque biofilms; experiment: Oral plaque biofilm model, brief (1 minute) exposure, dead cell volume; assay type: cell-based; settings: 10 μg/ml, 1 minute once or three times, compared to DJK5
[12] = tested on: oral multispecies biofilm; experiment: Oral multispecies biofilm development on HA disks; assay type: cell-based; settings: 10 μg/ml, 3 days
[13] = tested on: 3-day-old oral plaque biofilms; experiment: Plaque biofilms treated with oral rinse solutions for 14 days; assay type: cell-based; settings: 0.12% CHX+10 μg/mL peptide, twice daily
Description: Briefly, after the formation of a 3-day-old biofilm, HA disks were rinsed in PBS for 1 minute and assigned to one of five treatment groups: (i) sterile water, (ii) Listerine Total Care Mouthwash (Johnson & Johnson Inc., Canada), (iii) GUM Paroex Mouthwash (Sunstar, USA), (iv) 0.12% CHX+10 μg/mL of peptide DJK-5, and (v) 0.12% CHX+10 μg/mL of peptide AB103-D. For each treatment, the disks were treated twice each day (i.e. at 8 am and […] for the first and second time, respectively). Treatment consisted of a droplet of 40 μl of each solution spread on the surface of the biofilm for 1 minute, followed by rinsing with PBS for 1 minute and then placing the disk back into the 24-well plates under anaerobic conditions at 37 °C. On the 0, 1st, 3rd, 7th, 10th, and 14th day, three disks from each group were collected for confocal microscopy analysis. Biofilms were stained with fluorescent dyes SYTO-9 and propidium iodide, which stain live cells green and dead cells red, respectively. The scale bar represents 200 μm. […]. […] The results indicated improved antibiofilm effects of AB103-D on 3-day-old oral plaque biofilms compared to treatment by various oral rinse solutions for 14 days.

N/TERT keratinocytes = experiment: Cytotoxicity (LDH release), N/TERT keratinocytes

CC[C@@H](C)[C@@H](NC(=O)[C@@H](C)NC(=O)[C@@H](CCCNC(=N)N)NC(=O)[C@@H](Cc1c[nH]c2ccccc12)NC(=O)[C@@H](CCC(N)=O)NC(=O)[C@H](NC(=O)[C@@H](CCCNC(=N)N)NC(=O)[C@H](NC(=O)[C@H](NC(=O)[C@@H](CCCNC(=N)N)NC(=O)[C@H](NC(=O)[C@H](N)CCCNC(=N)N)C(C)C)C(C)C)[C@H](C)CC)C(C)C)C(N)=O [AB103-D, rvrvirvqwrai-NH2] (H-[dR][dV][dR][dV][dI][dR][dV][dQ][dW][dR][dA][dI]-NH2)
MBIC of AB103-D alone ([1]; PAO1, BM2 minimal media, at least 70% reduction of biofilm biomass): 2 µg/mL
Synergy with several other antimicrobials ([1]; PAO1 biofilms): proved synergistic with several other antimicrobials
Antibiofilm activity on skin organoid [2]: excellent antibiofilm activity
Antibiofilm activity on skin organoid [3]: excellent antibiofilm activity
Antibiofilm activity from collagen dressing [4]: clearly superior activity to both DJK-5 and ciprofloxacin
Antibiofilm activity from collagen dressing [5]: clearly superior activity to both DJK-5 and ciprofloxacin
Bacterial burden on organoid skin, loaded bandage [6]: effectively reduce the bacterial burden
Bacterial burden on organoid skin, loaded bandage [7]: effectively reduce the bacterial burden
Bacterial burden on organoid skin, loaded bandage [8]: effectively reduce the bacterial burden
Efficacy in porcine skin infection [9]: worked as well or better than ciprofloxacin, mupirocin (for MRSA)
Proportion of dead biofilm cells ([10]; 10 μg/ml, daily for 3 days, compared to DJK5 (FIG. 16A)): superior to DJK5 at killing bacteria cells
Proportion of dead biofilm cells ([10]; 1 or 5 μg/ml, daily for 3 days, compared to DJK5 (FIG. 16A)): killed more of the biofilm cells
Proportion of dead biofilm cells ([10]; all three concentrations, one day (FIG. 16C)): killed more biofilm cells than DJK5
Proportion of dead biofilm cells ([10]; all three concentrations, two days (FIG. 16B)): killed more biofilm cells than DJK5
Killing of 3-day-old oral plaque biofilms [11]: significantly more effective than DJK5
Total biovolume [12]: reduced total biovolume
Percentage of dead bacterial cell volume ([12]; compared to DJK5): significantly higher percentage of dead bacterial cell volume compared to DJK5 treatment
Proportion of dead bacteria within the biofilm [13]: more effective than DJK5
Residual plaque biovolume [13]: superior than DJK5
Cytotoxicity (LDH) (N/TERT keratinocytes): low toxicity
